{"source": "PubChem BioAssay AID1334", "about": "(NMMLSC, 2008)", "data": [{"molecular_target": "Cell division control protein 42 homolog (Homo sapiens) (UniProt P60953)", "sequence (P60953 whole entry, looked up)": "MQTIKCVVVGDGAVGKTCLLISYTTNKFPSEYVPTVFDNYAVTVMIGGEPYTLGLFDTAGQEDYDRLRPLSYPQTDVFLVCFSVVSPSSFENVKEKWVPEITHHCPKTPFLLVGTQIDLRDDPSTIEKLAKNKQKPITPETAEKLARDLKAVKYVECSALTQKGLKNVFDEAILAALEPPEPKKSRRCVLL", "assay": "wildtype Cdc42 GTP-binding inhibitors, dose response, biochemical, multiplex bead flow cytometry, Bodipy-FL-GTP (AID 1334);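 note: potency of inhibiting fluorescent GTP binding to Cdc42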", "conditions": "bead-based flow cytometry, Bodipy-FL-GTP binding to GST-Cdc42", "units": {"EC50": "µM"}, "values": [{"smiles": "CCc1ccc(NS(=O)(=O)c2ccc3[nH]cc(C(=O)N4CCc5ccccc54)c(=O)c3c2)cc1", "EC50": 18.9}, {"smiles": "CCCc1nc2c(=O)n(C)c(=O)nc-2n(C)n1", "EC50": 1.33}, {"smiles": "N#Cc1c(-c2ccccc2)nc(SCC(=O)Nc2ccccc2)[nH]c1=O", "EC50": 2.1}, {"smiles": "CCOC(=O)c1c(NC(=O)C(=O)N/N=C/c2ccc(O)c(OC)c2)sc2c1CCCCC2", "EC50": 2.87}, {"smiles": "NS(=O)(=O)c1ccc(N2N=C(c3ccccc3)CC2c2cccc(F)c2)cc1", "note": "(configuration not stated)", "EC50": 4.87}, {"smiles": "CCOc1ccc(/C=C2\\SC(N3CCc4ccccc4C3)=NC2=O)cc1", "EC50": 40.5}, {"smiles": "CS(=O)(=O)c1ccc(C(=O)OCC(=O)NC(=O)C2CCCCC2)cc1[N+](=O)[O-]", "EC50": 53.1}, {"smiles": "Cc1cccc2cc(CN(Cc3cccs3)C(c3nnnn3C3CCCC3)C(C)C)c(=O)[nH]c12", "note": "(configuration not stated)", "EC50": 1.96}, {"smiles": "O=C(O)c1ccccc1NCCc1ccc(Cl)cc1", "EC50": 1.53}, {"smiles": "Cc1ccc(C)c(OCCn2cc(C(=O)O)c3ccccc32)c1", "EC50": 0.584}, {"smiles": "CCCS(=O)(=O)c1nnnn1-c1cccc(OC)c1", "EC50": 19.3}, {"smiles": "Cc1nc2c(=O)n(C)c(=O)nc-2n(C)n1", "EC50": 1.96}, {"smiles": "S=C(Nc1ccc(Oc2ccccc2)cc1)NC1CCCCC1", "EC50": 32.8}, {"smiles": "CCCN1C(=O)/C(=C/C=C2\\N(CC)c3ccccc3C2(C)C)SC1=S", "EC50": 5.49}, {"smiles": "CCOC(=O)Cn1nnnc1C(C(C)C)N(Cc1cccs1)Cc1cc2cc(C)ccc2[nH]c1=O", "note": "(configuration not stated)", "EC50": 7.28}, {"smiles": "CCOC(=O)c1cc([N+](=O)[O-])c([N+](=O)[O-])cc1NC(C)=O", "EC50": 7.19}, {"smiles": "O=C(O)c1ccccc1Sc1ncnc2sc3c(c12)CCC3", "EC50": 4.38}, {"smiles": "CC(=O)c1ccc(C#CC(=O)c2ccc([N+](=O)[O-])cc2)cc1", "EC50": 0.394}, {"smiles": "Cc1sc2nc3ccc(NCc4ccco4)nn3c(=O)c2c1C", "EC50": 21.5}, {"smiles": "O=C(O)c1ccccc1OCc1ccccc1Br", "EC50": 0.103}, {"smiles": "Cc1cc(C)c(C)c(C(=O)c2ccccc2C(=O)O)c1C", "EC50": 5.95}, {"smiles": "COC(=O)c1cccnc1SCCc1ccccc1", "EC50": 18.7}, {"smiles": "O=C(NCc1cccs1)c1cccnc1C(=O)O", "EC50": 4.01}, {"smiles": "CCn1nc(/C=C/c2ccccc2)nc2c(=O)n(C)c(=O)nc1-2", "EC50": 1.55}, {"smiles": "CCS(=O)(=O)N1N=C(c2cccc(NS(C)(=O)=O)c2)CC1c1ccc(C)cc1", "note": "(configuration not stated)", "EC50": 2.6}, {"smiles": "CCC(C(=O)NC1CCCC1)N(C(=O)Cn1nnc(-c2ccc(C)o2)n1)c1cnc2ccccc2c1", "note": "(configuration not stated)", "EC50": 34.6}, {"smiles": "NS(=O)(=O)c1ccc(N2N=C(c3ccccc3)CC2c2ccccc2)cc1", "note": "(configuration not stated)", "EC50": 8.22}, {"smiles": "O=C(O)/C=C/c1cn(Cc2ccccc2)nc1-c1cccs1", "EC50": 3.99}, {"smiles": "COc1ccc(C2CC(c3ccccc3)=NN2c2ccc(S(N)(=O)=O)cc2)cc1", "note": "(configuration not stated)", "EC50": 3.2}, {"smiles": "O=C(Nc1nnc(-c2ccc3c(c2)OCCO3)o1)c1ccc(Cc2ccccc2)cc1", "EC50": 0.355}, {"smiles": "COc1ccc(-c2cc(C#N)nc(N3CCNCC3)n2)cc1", "EC50": 28.1}, {"smiles": "CC(C)C(NCc1c(Cl)cccc1Cl)C(=O)O", "note": "(configuration not stated)", "EC50": 6.4}]}]}
